Reference: article PMC7044277 (Nature Communications, 2020)
Where “and” joins values, the source holds several entries; their conditions need not be identical. Equal values may be shown once.

Key:
[1] = target: DRD2 (D2 long receptor) wild-type (Homo sapiens, UniProt P14416); test: Radioligand competition binding, [3H]-N-methylspiperone, HEK293T membranes; conditions: DRD2; [3H]-methylspiperone (0.8-1.0 nM); read-out: Ki
DRD3 wild-type = DRD3 wild-type (Homo sapiens, UniProt P35462); test: Radioligand competition binding, [3H]-N-methylspiperone; conditions: DRD3; [3H]-methylspiperone (0.8-1.0 nM); read-out: Ki
[2] = target: T1, DRD4 (D4.4 variant) wild-type (Homo sapiens, UniProt P21917); test: as above; conditions: DRD4; [3H]-methylspiperone (0.8-1.0 nM); read-out: Ki
T1 sequence (P21917 1-419): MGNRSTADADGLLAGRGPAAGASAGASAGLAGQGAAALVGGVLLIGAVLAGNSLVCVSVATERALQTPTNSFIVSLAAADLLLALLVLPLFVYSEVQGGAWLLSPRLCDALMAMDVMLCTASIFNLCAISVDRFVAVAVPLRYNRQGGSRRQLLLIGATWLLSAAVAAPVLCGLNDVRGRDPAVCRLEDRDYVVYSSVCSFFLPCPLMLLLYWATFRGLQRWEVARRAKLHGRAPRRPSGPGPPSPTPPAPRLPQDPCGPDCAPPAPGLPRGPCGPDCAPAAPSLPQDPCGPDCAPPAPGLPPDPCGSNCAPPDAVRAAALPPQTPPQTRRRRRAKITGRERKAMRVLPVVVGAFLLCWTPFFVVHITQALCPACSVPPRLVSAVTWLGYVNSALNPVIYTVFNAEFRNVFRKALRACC

DRD3 F1063.28A = DRD3 F1063.28A (Homo sapiens, UniProt P35462, F106A); test: biochemical; assay type: binding
DRD4 (D4.4 variant) = target: T2, DRD4 (D4.4 variant) (Homo sapiens, UniProt P21917); test: β-arrestin2 recruitment (Tango); assay type: cell-based; conditions: for Fig_S10c concentration-response source data, compound alone (replicates): agonist mode
T2 sequence (P21917 1-419): T1 sequence (P21917 1-419)

DRD2 F1103.28L = target: T3, DRD2 F1103.28L (Homo sapiens, UniProt P14416, F110L); test: β-arrestin2 recruitment (Tango), mutant; assay type: cell-based
T3 construct: expressed in transfected cells; host or cells: HEK293T (ATCC CRL-11268)

5HT1E = 5HT1E (Homo sapiens, UniProt P28566); test: β-arrestin2 recruitment (Tango); assay type: cell-based; conditions: Fig_S10i
5HT1F = target: T4, 5HT1F (Homo sapiens, UniProt P30939); test: β-arrestin2 recruitment (Tango); assay type: cell-based; conditions: Fig_S10j
T4 construct: expressed in transfected cells; host or cells: HTLA cells expressing TEV-fused β-arrestin2
T4 sequence (P30939 1-366): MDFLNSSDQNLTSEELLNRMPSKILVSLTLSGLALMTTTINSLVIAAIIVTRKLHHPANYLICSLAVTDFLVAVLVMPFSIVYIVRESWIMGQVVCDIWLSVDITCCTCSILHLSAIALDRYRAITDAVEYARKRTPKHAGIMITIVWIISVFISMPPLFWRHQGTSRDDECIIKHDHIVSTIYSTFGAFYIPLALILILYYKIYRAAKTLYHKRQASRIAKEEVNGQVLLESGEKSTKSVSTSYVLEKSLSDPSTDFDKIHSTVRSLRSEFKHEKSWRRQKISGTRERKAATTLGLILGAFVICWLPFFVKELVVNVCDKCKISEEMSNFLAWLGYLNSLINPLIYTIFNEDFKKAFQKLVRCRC

5HT1E, sequence (P28566 whole entry): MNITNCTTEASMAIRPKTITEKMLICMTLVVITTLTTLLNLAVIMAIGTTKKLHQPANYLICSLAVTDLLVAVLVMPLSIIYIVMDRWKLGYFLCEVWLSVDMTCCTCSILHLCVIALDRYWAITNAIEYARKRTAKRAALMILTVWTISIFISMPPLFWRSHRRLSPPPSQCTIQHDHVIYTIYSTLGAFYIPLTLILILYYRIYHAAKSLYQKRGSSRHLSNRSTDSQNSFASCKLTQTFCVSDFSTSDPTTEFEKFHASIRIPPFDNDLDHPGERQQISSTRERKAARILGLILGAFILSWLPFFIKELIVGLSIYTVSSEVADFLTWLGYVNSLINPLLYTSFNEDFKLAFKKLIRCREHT
DRD3 wild-type, sequence (P35462 whole entry): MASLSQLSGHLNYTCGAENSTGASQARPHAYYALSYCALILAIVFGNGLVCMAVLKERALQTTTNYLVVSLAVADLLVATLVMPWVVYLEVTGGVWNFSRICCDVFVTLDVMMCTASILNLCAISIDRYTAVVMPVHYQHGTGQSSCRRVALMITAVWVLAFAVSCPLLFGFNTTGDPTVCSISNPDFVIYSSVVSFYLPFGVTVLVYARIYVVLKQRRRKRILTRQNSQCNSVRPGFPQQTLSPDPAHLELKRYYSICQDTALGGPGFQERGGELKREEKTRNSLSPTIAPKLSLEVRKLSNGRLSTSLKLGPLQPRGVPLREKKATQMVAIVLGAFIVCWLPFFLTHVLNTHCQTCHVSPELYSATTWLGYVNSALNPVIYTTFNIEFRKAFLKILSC
DRD3 F1063.28A, sequence (P35462 whole entry F106A): as the sequence (P35462 whole entry) above, with F106A counted along it
T3 sequence (P14416 whole entry F110L): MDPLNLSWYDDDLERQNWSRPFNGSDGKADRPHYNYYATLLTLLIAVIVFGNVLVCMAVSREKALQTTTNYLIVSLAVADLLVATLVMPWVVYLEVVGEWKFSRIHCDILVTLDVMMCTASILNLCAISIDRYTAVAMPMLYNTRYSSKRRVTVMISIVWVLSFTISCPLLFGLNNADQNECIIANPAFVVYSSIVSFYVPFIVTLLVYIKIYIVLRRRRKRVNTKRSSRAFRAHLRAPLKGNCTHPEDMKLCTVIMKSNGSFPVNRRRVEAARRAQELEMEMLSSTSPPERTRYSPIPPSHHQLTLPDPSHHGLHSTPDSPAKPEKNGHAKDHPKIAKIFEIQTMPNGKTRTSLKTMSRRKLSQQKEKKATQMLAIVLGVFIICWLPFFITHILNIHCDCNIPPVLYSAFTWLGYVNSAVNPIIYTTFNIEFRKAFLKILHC
DRD2 (D2 long receptor) wild-type, sequence (P14416 whole entry): as the sequence (P14416 whole entry F110L) above, with L110F counted along it

## CCOc1cccc2cc([C@H](C)NCC3(O)CCCCC3)oc12 [O4SE6]
[1]
  Ki: 4.57 µM
DRD3 wild-type
  Ki: 0.81 µM
[2]
  Ki: > 10 µM
DRD3 F1063.28A
  Ki: 1.91 µM
DRD4 (D4.4 variant); DRD4, Tango, read-out: EC50 ± SEM
  EC50: > 10 µM
DRD4 (D4.4 variant); Log[Drug] -5
  Fig_S10c concentration-response source data, compound alone (replicates): 6.217 and 2.763 and 2.001 and 1.287 and 1.775 and 4.058 and 4.003 and 0.06427 and 0.2106
DRD4 (D4.4 variant); Log[Drug] -5.52
  Fig_S10c concentration-response source data, compound alone (replicates): 2.6039 and -1.106 and -1.946 and -0.4701 and 1.404 and 2.39 and 0.8979 and 0.0552 and 0.08381
DRD4 (D4.4 variant); Log[Drug] -6
  β-arrestin2 recruitment response at DRD4 (source data, replicate values): 2.086
  Fig_S10c concentration-response source data, compound alone (replicates): 3.584 and -1.188 and -0.584 and -0.6588 and 0.8796 and 1.83 and 0.7762 and 0.03516 and 0.171
DRD4 (D4.4 variant); Log[Drug] -6.52
  β-arrestin2 recruitment response at DRD4 (source data, replicate values): 1.505 and 1.478 and 5.593 and -1.936 and -0.8155 and 0.5983 and 2.508 and 1.037 and -0.4712
  Fig_S10c concentration-response source data, compound alone (replicates): 1.007 and 4.325 and 1.323 and -0.8974 and 1.527 and -0.05366 and -0.1047 and 0.03541 and 0.08444
DRD4 (D4.4 variant); Log[Drug] -7
  β-arrestin2 recruitment response at DRD4 (source data, replicate values): 2.288 and 4.238 and 0.7634 and -1.02 and 3.3404 and -2.026 and 1.575 and 0.945 and -0.6741
  Fig_S10c concentration-response source data, compound alone (replicates): 1.079 and -1.731 and -1.221 and -1.369 and 0.6898 and 0.678 and 1.948 and 0.1059 and 0.1355
DRD4 (D4.4 variant); Log[Drug] -7.52
  β-arrestin2 recruitment response at DRD4 (source data, replicate values): 1.649 and 0.1326 and 3.251 and -1.741 and -0.5217 and -0.1424 and -0.5236 and 0.6819 and 0.4869
DRD4 (D4.4 variant); Log[Drug] -8
  β-arrestin2 recruitment response at DRD4 (source data, replicate values): 0.1559 and 0.6003 and -0.215 and 3.989 and -1.66 and -2.089 and 1.626 and 2.253 and 0.1073
DRD4 (D4.4 variant); Log[Drug] -8.52
  β-arrestin2 recruitment response at DRD4 (source data, replicate values): 0.09319 and 0.08781 and 1.238 and -1.884 and -2.01 and 2.354 and 0.733 and 0.839 and 0.1558
DRD4 (D4.4 variant); Log[Drug] -9
  β-arrestin2 recruitment response at DRD4 (source data, replicate values): 1.025 and 0.8745 and 0.8477 and 1.633 and -1.008 and -1.74 and 1.682 and 0.09555 and 2.31
DRD4 (D4.4 variant); Log[Drug] -9.52
  β-arrestin2 recruitment response at DRD4 (source data, replicate values): 1.007 and 1.419 and 7.892 and -0.8689 and -1.296 and 0.8476 and 1.4149 and 0.894 and 0.2094
DRD4 (D4.4 variant); Log[Drug] -10
  β-arrestin2 recruitment response at DRD4 (source data, replicate values): 1.797 and 0.7921 and 2.561 and -1.944 and -1.43 and -2.445 and 0.6793 and 0.5811 (2×)
DRD4 (D4.4 variant); Log[Drug] -10.52
  β-arrestin2 recruitment response at DRD4 (source data, replicate values): 1.808 and 0.4319 and 2.3763 and 1.191 and 0.9847 and -1.294 and 0.1099 and -0.2474 and -0.3547
DRD4 (D4.4 variant); Log[Drug] -11
  β-arrestin2 recruitment response at DRD4 (source data, replicate values): 0.1559 and 1.383 and -0.06631 and 0.9882 and -1.444 and -1.642 and 1.271 and -0.5746 and 1.065
DRD4 (D4.4 variant); Log[Drug] -11.52
  β-arrestin2 recruitment response at DRD4 (source data, replicate values): -0.1308 and 0.7778 and 1.385 and -1.934 and -1.503 and -0.7069 and -0.466 and 1.013 and -1.209
DRD2 F1103.28L
  EC50: > 10 µM
5HT1E; Log[Drug] -5.52
  β-arrestin2 recruitment response, agonist mode (single replicate values): 0.8358
5HT1E; Log[Drug] -6
  β-arrestin2 recruitment response, agonist mode (single replicate values): -1.216 and -11.5535 and -10.8591 and -6.779 and -25.5686 and -12.8268 and -17.4797 and -14.3235 and -24.758
5HT1E; Log[Drug] -6.52
  β-arrestin2 recruitment response, agonist mode (single replicate values): -5.589 and -4.67 and -2.933 and -14.8207 and -0.8192 and -17.7203 and -10.9861 and -19.449 and -21.9113
5HT1E; Log[Drug] -7
  β-arrestin2 recruitment response, agonist mode (single replicate values): -10.5885 and -12.0267 and -4.043 and -9.048 and -20.5356 and 41.9563 and -10.9581 and -15.0865 and -7.033
5HT1E; Log[Drug] -7.52
  β-arrestin2 recruitment response, agonist mode (single replicate values): -6.825 and 5.648 and -4.719 and -12.9295 and 12.6751 and -7.089 and -18.5156 and -18.3717 and -21.8227
5HT1E; Log[Drug] -8
  β-arrestin2 recruitment response, agonist mode (single replicate values): -7.977 and -8.538 and -9.216 and -19.7126 and -7.765 and -29.5609 and -0.3541 and 4.202 and -14.1998
5HT1E; Log[Drug] -8.52
  β-arrestin2 recruitment response, agonist mode (single replicate values): -8.057 and -8.967 and 2.216 and 9.159 and -4.385 and 8.583 and -6.33 and -6.852 and -26.8276
5HT1E; Log[Drug] -9
  β-arrestin2 recruitment response, agonist mode (single replicate values): 0.8147 and -7.106 and -2.942 and -13.4536 and -20.6306 and -0.4912 and -5.667 and -8.764 and -8.801
5HT1E; Log[Drug] -9.52
  β-arrestin2 recruitment response, agonist mode (single replicate values): -5.189 and -0.1954 and -0.3872 and -6.065 and -25.1931 and 34.39 and 6.445 and -12.4444 and -9.8607
5HT1E; Log[Drug] -10
  β-arrestin2 recruitment response, agonist mode (single replicate values): 5.7233 and -7.338 and -6.569 and -5.352 and 52.7977 and 2.248 and -7.089 and -2.873 and 1.262
5HT1E; Log[Drug] -10.52
  β-arrestin2 recruitment response, agonist mode (single replicate values): -5.082 and -6.296 and 10.3259 and -3.566 and -12.7533 and -11.9533 and -23.7764 and -18.6704 and -6.074
5HT1E; Log[Drug] -11
  β-arrestin2 recruitment response, agonist mode (single replicate values): -1.572 and -7.387 and 4.824 and -17.5471 and -8.254 and 2.626 and -10.6703 and -5.6779 and -4.661
5HT1F; Log[Drug] -8
  β-arrestin2 recruitment response, agonist mode (single replicate values): 1.302 and -0.3873 and 2.074 and -2.101 and -1.406 and -2.308 and -1.812 and -0.8607 and -0.04463
5HT1F; Log[Drug] -8.52
  β-arrestin2 recruitment response, agonist mode (single replicate values): 0.304 and 0.5074 and 1.87 and 1.981 and -1.055 and -1.27 and -1.358 and -1.238 and -0.4845
5HT1F; Log[Drug] -9
  β-arrestin2 recruitment response, agonist mode (single replicate values): 0.9904 and 0.706 and 0.885 and 0.6945 and 9.325 and -1.862 and -2.066 and -0.6583 and 0.2247
5HT1F; Log[Drug] -9.52
  β-arrestin2 recruitment response, agonist mode (single replicate values): 3.047 and -0.8801 and 2.567 and 4.29 and 2.342 and -1.433 and -1.621 and -2.0051 and -0.408
5HT1F; Log[Drug] -10
  β-arrestin2 recruitment response, agonist mode (single replicate values): 4.819 and -0.0956 and 1.856 and -1.573 and -2.24 and -0.1941 and -0.1562 and -0.3459 and -1.4329
5HT1F; Log[Drug] -10.52
  β-arrestin2 recruitment response, agonist mode (single replicate values): 0.4927 and 0.6104 and 0.5001 and 1.318 and -2.635 and -1.961 and -1.313 and -0.102 and -0.1036
5HT1F; Log[Drug] -11
  β-arrestin2 recruitment response, agonist mode (single replicate values): 1.294 and -0.1888 and 1.488 and -1.416 and -3.18 and -0.3234 and -0.2837 and 1.1189 and -0.7348
5HT1F; Log[Drug] -11.52
  β-arrestin2 recruitment response, agonist mode (single replicate values): 2.172 and 1.385 and 0.6864 and -1.406 and -1.13 and -0.05788 and -1.691 and -2.064 and -2.201
5HT1F; Log[Drug] -12
  β-arrestin2 recruitment response, agonist mode (single replicate values): 0.3211 and 1.218 and -0.05883 and -2.747 and -2.758 and -0.03745 and -0.9037 and -1.7453 and 2.037
